Source: ChEMBL document CHEMBL3885881, “DrugMatrix”

Species on record: Rattus norvegicus
Experiment: DrugMatrix - Regimen: Daily Repeat
Type: toxicity, organism-based, Sprague-Dawley
Parameters: regimen Daily Repeat, gender Male, age 6-8 weeks
Settings: in vivo, po, route oral GAVAGE, vehicle .5 % CMC; for ABSOLUTE BASOPHIL / ABSOLUTE EOSINOPHIL / ABSOLUTE LYMPHOCYTE / ABSOLUTE MONOCYTE / ABSOLUTE SEGMENTED NEUTROPHIL / BASOPHIL / EOSINOPHIL / ERYTHROCYTE COUNT / HEMATOCRIT / HEMOGLOBIN / LEUKOCYTE COUNT / LYMPHOCYTE / MEAN CORPUSCULAR HEMOGLOBIN / MEAN CORPUSCULAR HEMOGLOBIN CONCENTRATION / MEAN CORPUSCULAR VOLUME / MONOCYTE / NEUTROPHIL / NUCLEATED RED BLOOD CELLS / PLATELET COUNT: tissue Blood; for ALANINE AMINOTRANSFERASE / ALBUMIN / ALKALINE PHOSPHATASE / ASPARTATE AMINOTRANSFERASE / BLOOD UREA NITROGEN / CARBON DIOXIDE / CHLORIDE / CHOLESTEROL / CREATINE PHOSPHOKINASE / CREATININE / GLUCOSE / LACTATE DEHYDROGENASE / LIPASE / PHOSPHORUS / POTASSIUM / SODIUM / TOTAL BILIRUBIN / TOTAL PROTEIN / URIC ACID: tissue Plasma
[1] = 10 mg/kg, 72 h, dose level Low, time 3 day
[2] = 10 mg/kg, 120 h, dose level Low, time 5 day
[3] = 2000 mg/kg, 72 h, dose level High, time 3 day
[4] = 2000 mg/kg, 120 h, dose level High, time 5 day

SMILES: CC(=O)O[C@]1(C(C)=O)CC[C@H]2[C@@H]3C=C(Cl)C4=CC(=O)CC[C@]4(C)[C@H]3CC[C@@]21C [CHLORMADINONE ACETATE]
- ABSOLUTE BASOPHIL [1]: 0 CELLS/uL
- ABSOLUTE EOSINOPHIL [1]: 58.33 CELLS/uL
- ABSOLUTE LYMPHOCYTE [1]: 11175 CELLS/uL
- ABSOLUTE MONOCYTE [1]: 59.67 CELLS/uL
- ABSOLUTE SEGMENTED NEUTROPHIL [1]: 507 CELLS/uL
- BASOPHIL [1]: 0%
- EOSINOPHIL [1]: 0.33%
- ERYTHROCYTE COUNT [1]: 5.63 x10E6/uL
- HEMATOCRIT [1]: 35.5%
- HEMOGLOBIN [1]: 14.3 G/DL
- LEUKOCYTE COUNT [1]: 11.8 x10E3/uL
- LYMPHOCYTE [1]: 94.67%
- MEAN CORPUSCULAR HEMOGLOBIN [1]: 25.37 pg
- MEAN CORPUSCULAR HEMOGLOBIN CONCENTRATION [1]: 40.27 G/DL
- MEAN CORPUSCULAR VOLUME [1]: 63 fL
- MONOCYTE [1]: 0.67%
- NEUTROPHIL [1]: 4.33%
- NUCLEATED RED BLOOD CELLS [1]: 0 /100WBC
- PLATELET COUNT [1]: 925.33 x10E3/uL
- ALANINE AMINOTRANSFERASE [1]: 52 u/L
- ALBUMIN [1]: 4.5 G/DL
- ALKALINE PHOSPHATASE [1]: 475 u/L
- ASPARTATE AMINOTRANSFERASE [1]: 70.67 u/L
- BLOOD UREA NITROGEN [1]: 17.67 mg/dL
- CARBON DIOXIDE [1]: 33 mmol/L
- CHLORIDE [1]: 101 MEQ/L
- CHOLESTEROL [1]: 81.67 mg/dL
- CREATINE PHOSPHOKINASE [1]: 138.33 u/L
- CREATININE [1]: 0.17 mg/dL
- GLUCOSE [1]: 135.67 mg/dL
- LACTATE DEHYDROGENASE [1]: 134.67 u/L
- LIPASE [1]: 12 u/L
- PHOSPHORUS [1]: 11.17 mg/dL
- POTASSIUM [1]: 6.06 MEQ/L
- SODIUM [1]: 149.35 MEQ/L
- TOTAL BILIRUBIN [1]: 0.3 mg/dL
- TOTAL PROTEIN [1]: 6.37 G/DL
- URIC ACID [1]: 0.67 mg/dL
- ABSOLUTE BASOPHIL [2]: 0 CELLS/uL
- ABSOLUTE EOSINOPHIL [2]: 0 CELLS/uL
- ABSOLUTE LYMPHOCYTE [2]: 14416.33 CELLS/uL
- ABSOLUTE MONOCYTE [2]: 46.33 CELLS/uL
- ABSOLUTE SEGMENTED NEUTROPHIL [2]: 1304 CELLS/uL
- BASOPHIL [2]: 0%
- EOSINOPHIL [2]: 0%
- ERYTHROCYTE COUNT [2]: 6.23 x10E6/uL
- HEMATOCRIT [2]: 37.17%
- HEMOGLOBIN [2]: 14.57 G/DL
- LEUKOCYTE COUNT [2]: 15.77 x10E3/uL
- LYMPHOCYTE [2]: 91.67%
- MEAN CORPUSCULAR HEMOGLOBIN [2]: 23.47 pg
- MEAN CORPUSCULAR HEMOGLOBIN CONCENTRATION [2]: 39.23 G/DL
- MEAN CORPUSCULAR VOLUME [2]: 59.77 fL
- MONOCYTE [2]: 0.33%
- NEUTROPHIL [2]: 8%
- NUCLEATED RED BLOOD CELLS [2]: 0 /100WBC
- PLATELET COUNT [2]: 1116.33 x10E3/uL
- ALANINE AMINOTRANSFERASE [2]: 54.33 u/L
- ALBUMIN [2]: 4.47 G/DL
- ALKALINE PHOSPHATASE [2]: 380.67 u/L
- ASPARTATE AMINOTRANSFERASE [2]: 92.67 u/L
- BLOOD UREA NITROGEN [2]: 14 mg/dL
- CARBON DIOXIDE [2]: 25.67 mmol/L
- CHLORIDE [2]: 102.33 MEQ/L
- CHOLESTEROL [2]: 79.67 mg/dL
- CREATINE PHOSPHOKINASE [2]: 290.67 u/L
- CREATININE [2]: 0.13 mg/dL
- GLUCOSE [2]: 156.67 mg/dL
- LACTATE DEHYDROGENASE [2]: 269 u/L
- LIPASE [2]: 9.67 u/L
- PHOSPHORUS [2]: 12.67 mg/dL
- POTASSIUM [2]: 7.15 MEQ/L
- SODIUM [2]: 146.13 MEQ/L
- TOTAL BILIRUBIN [2]: 0.2 mg/dL
- TOTAL PROTEIN [2]: 6.27 G/DL
- URIC ACID [2]: 1.77 mg/dL
- ABSOLUTE BASOPHIL [3]: 0 CELLS/uL
- ABSOLUTE EOSINOPHIL [3]: 87.33 CELLS/uL
- ABSOLUTE LYMPHOCYTE [3]: 10368.67 CELLS/uL
- ABSOLUTE MONOCYTE [3]: 145 CELLS/uL
- ABSOLUTE SEGMENTED NEUTROPHIL [3]: 665.67 CELLS/uL
- BASOPHIL [3]: 0%
- EOSINOPHIL [3]: 0.67%
- ERYTHROCYTE COUNT [3]: 5.63 x10E6/uL
- HEMATOCRIT [3]: 36.4%
- HEMOGLOBIN [3]: 14.6 G/DL
- LEUKOCYTE COUNT [3]: 11.27 x10E3/uL
- LYMPHOCYTE [3]: 90.67%
- MEAN CORPUSCULAR HEMOGLOBIN [3]: 25.93 pg
- MEAN CORPUSCULAR HEMOGLOBIN CONCENTRATION [3]: 40.1 G/DL
- MEAN CORPUSCULAR VOLUME [3]: 64.67 fL
- MONOCYTE [3]: 1.33%
- NEUTROPHIL [3]: 7.33%
- NUCLEATED RED BLOOD CELLS [3]: 0 /100WBC
- PLATELET COUNT [3]: 1192 x10E3/uL
- ALANINE AMINOTRANSFERASE [3]: 57 u/L
- ALBUMIN [3]: 4.57 G/DL
- ALKALINE PHOSPHATASE [3]: 388.67 u/L
- ASPARTATE AMINOTRANSFERASE [3]: 82 u/L
- BLOOD UREA NITROGEN [3]: 16.33 mg/dL
- CARBON DIOXIDE [3]: 29 mmol/L
- CHLORIDE [3]: 99 MEQ/L
- CHOLESTEROL [3]: 79.67 mg/dL
- CREATINE PHOSPHOKINASE [3]: 341.33 u/L
- CREATININE [3]: 0.18 mg/dL
- GLUCOSE [3]: 149.33 mg/dL
- LACTATE DEHYDROGENASE [3]: 132.67 u/L
- LIPASE [3]: 10 u/L
- PHOSPHORUS [3]: 12.23 mg/dL
- POTASSIUM [3]: 6.81 MEQ/L
- SODIUM [3]: 144.97 MEQ/L
- TOTAL BILIRUBIN [3]: 0.17 mg/dL
- TOTAL PROTEIN [3]: 6.6 G/DL
- URIC ACID [3]: 1.8 mg/dL
- ABSOLUTE BASOPHIL [4]: 0 CELLS/uL
- ABSOLUTE EOSINOPHIL [4]: 0 CELLS/uL
- ABSOLUTE LYMPHOCYTE [4]: 10781.67 CELLS/uL
- ABSOLUTE MONOCYTE [4]: 45 CELLS/uL
- ABSOLUTE SEGMENTED NEUTROPHIL [4]: 840 CELLS/uL
- BASOPHIL [4]: 0%
- EOSINOPHIL [4]: 0%
- ERYTHROCYTE COUNT [4]: 6.06 x10E6/uL
- HEMATOCRIT [4]: 36.83%
- HEMOGLOBIN [4]: 14.67 G/DL
- LEUKOCYTE COUNT [4]: 11.67 x10E3/uL
- LYMPHOCYTE [4]: 92%
- MEAN CORPUSCULAR HEMOGLOBIN [4]: 24.23 pg
- MEAN CORPUSCULAR HEMOGLOBIN CONCENTRATION [4]: 39.8 G/DL
- MEAN CORPUSCULAR VOLUME [4]: 60.87 fL
- MONOCYTE [4]: 0.33%
- NEUTROPHIL [4]: 7.67%
- NUCLEATED RED BLOOD CELLS [4]: 0.33 /100WBC
- PLATELET COUNT [4]: 996.33 x10E3/uL
- ALANINE AMINOTRANSFERASE [4]: 60.33 u/L
- ALBUMIN [4]: 4.3 G/DL
- ALKALINE PHOSPHATASE [4]: 310.33 u/L
- ASPARTATE AMINOTRANSFERASE [4]: 77.67 u/L
- BLOOD UREA NITROGEN [4]: 17.67 mg/dL
- CARBON DIOXIDE [4]: 24.67 mmol/L
- CHLORIDE [4]: 102.33 MEQ/L
- CHOLESTEROL [4]: 67.33 mg/dL
- CREATINE PHOSPHOKINASE [4]: 145.33 u/L
- CREATININE [4]: 0.2 mg/dL
- GLUCOSE [4]: 139 mg/dL
- LACTATE DEHYDROGENASE [4]: 117.33 u/L
- LIPASE [4]: 9.67 u/L
- PHOSPHORUS [4]: 12.2 mg/dL
- POTASSIUM [4]: 7.04 MEQ/L
- SODIUM [4]: 143.63 MEQ/L
- TOTAL BILIRUBIN [4]: 0.2 mg/dL
- TOTAL PROTEIN [4]: 6.37 G/DL
- URIC ACID [4]: 1.4 mg/dL
